Activity calls are given as the source filed them. The calls are words filed in the database; no cut-off is given here.
Key:
HL-60 [1] = assay: Induction of ROS generation in human HL60 cells at 1.5 uM after 24 hrs by DCFH-DA staining-based flow cytometry; format: functional, cell-based
HL-60 [2] = assay: Induction of cell death in human HL60 cells at 1 to 1.5 uM after 24 hrs in presence of antioxidant NAC by trypan blue assay; format: functional, cell-based
HL-60 [3] = assay: Induction of ROS generation in human HL60 cells at 1.5 uM after 24 hrs in presence of ROS inhibitor NAC by DCFH-DA staining-based flow cytometry; format: functional, cell-based
HL-60 [4] = assay: Induction of cell death in human HL60 cells at 0.4 uM after 24 hrs in absence of BSO by MTT assay; format: functional, cell-based
Liver [5] = assay: Induction of mitochondrial dysfunction in Wistar rat liver assessed as swelling up to 30 uM for 60 mins; format: functional; conditions: mitochondria
Homo sapiens = species on record: Homo sapiens; assay: Effect on glutathione peroxidase catalytic activity in human HL60 cells; format: cell-based
HL-60 [6] = assay: Induction of mitochondrial membrane potential loss in human HL60 cells at 0.75 uM after 24 hrs by JC-1 staining-based flow cytometry (reference value: 24.3%); format: functional
HL-60 [7] = assay: Induction of cell death in human HL60 cells at 0.4 uM after 24 hrs in presence of […] BSO by MTT assay; format: functional, cell-based
Liver [8] = assay: Induction of mitochondrial dysfunction in Wistar rat liver assessed as swelling at 20 uM in presence of calcium related inhibitor ruthenium red; format: functional; conditions: mitochondria
SGC-7901 [9] = assay: Cytotoxicity against human SGC7901 cells after 48 hrs by MTT assay; format: functional, cell-based; conditions: for IC50: SGC-7901, 48 h
HL-60 [10] = assay: Induction of apoptosis in human HL60 cells assessed as necrotic cells at 0.75 to 1.5 uM after 24 hrs by Annexin V-FITC/propidium iodide staining-based flow cytometry; format: functional
HL-60 [11] = assay: Cytotoxicity against human HL60 cells by MTT assay; format: functional, cell-based; conditions: TDE = time-dependent effect
HL-60 [12] = assay: Induction of apoptosis in human HL60 cells assessed as apoptotic body formation at 0.75 to 1.5 uM after 24 hrs by Hoechst 33342 staining-based laser scanning confocal microscopic analysis; format: functional, cell-based
HL-60 [13] = assay: Induction of apoptosis in human HL60 cells assessed as nuclear shrinkage at 0.75 to 1.5 uM after 24 hrs by Hoechst 33342 staining-based laser scanning confocal microscopic analysis; format: functional, cell-based
HL-60 [14] = assay: Induction of mitochondrial dysfunction in human HL60 cells assessed as increase in intracellular calcium level at 0.75 to 1.5 uM after 4 to 24 hrs by Fluo-3 AM dye-based flow cytometry; format: functional, cell-based
HL-60 [15] = assay: Induction of apoptosis in human HL60 cells assessed as abnormal cellular morphology at 0.75 to 1.5 uM after 24 hrs by Hoechst 33342 staining-based laser scanning confocal microscopic analysis; format: functional, cell-based
HL-60 [16] = assay: Reduction of mitochondrial membrane potential in human HL60 cells assessed as decrease in ATP levels at 0.75 to 1.5 uM after 24 hrs; format: functional, cell-based
MCF7 = assay: Cytotoxicity against human MCF7 cells after 48 hrs by MTT assay; format: functional, cell-based; conditions: for IC50: MCF7, 48 h
[17] = target: T1, Thioredoxin reductase 1, cytoplasmic (Homo sapiens) (UniProt Q16881); assay: Inhibition of TrxR in human HL60 cells assessed as residual activity at 2 times IC50 using thioredoxin as substrate up to 24 hrs measured for 5 mins by UV-Vis spectrophotometric analysis relative to control; format: cell-based
T1 sequence (whole entry): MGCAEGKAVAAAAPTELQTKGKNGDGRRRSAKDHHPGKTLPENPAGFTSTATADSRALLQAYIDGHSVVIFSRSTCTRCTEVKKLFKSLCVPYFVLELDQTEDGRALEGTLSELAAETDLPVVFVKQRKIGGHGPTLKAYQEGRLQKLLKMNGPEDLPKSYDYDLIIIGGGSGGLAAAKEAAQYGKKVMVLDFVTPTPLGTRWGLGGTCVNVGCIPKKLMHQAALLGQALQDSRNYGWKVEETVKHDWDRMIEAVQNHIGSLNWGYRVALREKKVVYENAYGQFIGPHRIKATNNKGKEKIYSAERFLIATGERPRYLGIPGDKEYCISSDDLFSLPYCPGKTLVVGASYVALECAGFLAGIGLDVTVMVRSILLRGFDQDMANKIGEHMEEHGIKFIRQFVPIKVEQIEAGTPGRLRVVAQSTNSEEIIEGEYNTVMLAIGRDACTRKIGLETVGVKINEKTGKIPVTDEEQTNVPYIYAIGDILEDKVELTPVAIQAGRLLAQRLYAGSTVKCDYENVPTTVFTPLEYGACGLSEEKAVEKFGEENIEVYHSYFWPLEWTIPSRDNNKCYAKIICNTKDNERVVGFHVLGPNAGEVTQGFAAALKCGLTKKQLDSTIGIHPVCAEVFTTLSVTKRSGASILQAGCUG

HL-60 [18] = assay: Induction of apoptosis in human HL60 cells assessed as less cell quantity at 0.75 to 1.5 uM after 24 hrs by Hoechst 33342 staining-based laser scanning confocal microscopic analysis; format: functional
HL-60 [19] = assay: Induction of mitochondrial membrane potential loss in human HL60 cells at 1.5 uM after 24 hrs by JC-1 staining-based flow cytometry (reference value: 24.3%); format: functional
HL-60 [20] = assay: Induction of ROS generation in human HL60 cells at 1.5 uM after 24 hrs in presence of antioxidant DTT by DCFH-DA staining-based flow cytometry; format: functional, cell-based
HL-60 [21] = assay: Induction of apoptosis in human HL60 cells assessed as DNA incision in bulk of cells at 0.75 to 1.5 uM after 24 hrs by Hoechst 33342 staining-based laser scanning confocal microscopic analysis; format: functional, cell-based
SGC-7901 [22] = assay: Cytotoxicity against human SGC7901 cells after 24 hrs by MTT assay; format: functional, cell-based; conditions: for IC50: SGC-7901, 24 h
HL-60 [23] = assay: Cytotoxicity against human HL60 cells after 48 hrs by MTT assay; format: functional, cell-based; conditions: for IC50: HL-60, 48 h
GES1 = assay: Cytotoxicity against human GES-1 cells after 24 hrs by MTT assay; format: cell-based; conditions: for IC50: Homo sapiens, GES1, 24 h; for Activity: human, ges1, 24 h
HL-60 [24] = assay: Induction of cell death in human HL60 cells at 1 to 1.5 uM after 24 hrs in presence of antioxidant DTT by trypan blue assay; format: functional, cell-based
SGC-7901 [25] = assay: Cytotoxicity against human SGC7901 cells by MTT assay; format: functional, cell-based; conditions: TDE = time-dependent effect
HL-60 [26] = assay: Induction of mitochondrial membrane potential loss in human HL60 cells at 0.75 uM after 24 hrs by JC-1 staining-based flow cytometry (reference value: 28.6%); format: functional
HL-60 [27] = assay: Induction of mitochondrial membrane potential loss in human HL60 cells at 1.5 uM after 24 hrs by JC-1 staining-based flow cytometry (reference value: 28.6%); format: functional

| SMILES | Activity (HL-60 [1]) | Activity (HL-60 [2]) | Activity (HL-60 [3]) | Activity (HL-60 [4]) | Activity (Liver [5]) | Activity (Homo sapiens) | Activity (HL-60 [7]) | Activity (Liver [8]) | Activity (SGC-7901 [9]) | IC50 (SGC-7901 [9]) | Activity (HL-60 [10]) | Activity (HL-60 [11]) | Activity (HL-60 [12]) | Activity (HL-60 [13]) | Activity (HL-60 [14]) | Activity (HL-60 [15]) | Activity (HL-60 [16]) | Activity (MCF7) | IC50 (MCF7) | Activity [17] | further results |
| --- | --- | --- | --- | --- | --- | --- | --- | --- | --- | --- | --- | --- | --- | --- | --- | --- | --- | --- | --- | --- | --- |
| Oc1ccccc1/C=N/c1ccc([As]2SCCCS2)cc1 | Active | inactive | inactive | Active | Active | inactive | Active | inactive | Dose-dependent effect | 4.05 µM | <=0.2% | Tde | Active | Active | Active | Active | Active | Dose-dependent effect | 2.44 µM | 20% | Activity (HL-60 [6]): 49.1%; Activity (HL-60 [18]): Active; Activity (HL-60 [19]): 71%; Activity (HL-60 [20]): inactive; Activity (HL-60 [21]): Active; Activity (SGC-7901 [22]): Dose-dependent effect; IC50 (SGC-7901 [22]): 7.69 µM; Activity (HL-60 [23]): Dose-dependent effect; IC50 (HL-60 [23]): 0.71 µM; IC50 (GES1): 5.99 µM; Activity (GES1): Dose-dependent effect; Activity (HL-60 [24]): inactive; Activity (SGC-7901 [25]): Tde |
| O=C(Nc1ccc([As]2SCCCS2)cc1)c1ccccc1O | Active | inactive | inactive | Active | Active | inactive | Active | inactive | Dose-dependent effect | 6.75 µM | <=0.2% | Tde | Active | Active | Active | Active | Active | Dose-dependent effect | 7.89 µM | 20% | Activity (HL-60 [18]): Active; Activity (HL-60 [20]): inactive; Activity (HL-60 [26]): 51.8%; Activity (HL-60 [21]): Active; Activity (SGC-7901 [22]): Dose-dependent effect; IC50 (SGC-7901 [22]): 14.5 µM; Activity (HL-60 [23]): Dose-dependent effect; IC50 (HL-60 [23]): 0.69 µM; IC50 (GES1): 13.4 µM; Activity (GES1): Dose-dependent effect; Activity (HL-60 [24]): inactive; Activity (SGC-7901 [25]): Tde; Activity (HL-60 [27]): 71.8% |

Reference: ChEMBL document CHEMBL4138191, “Organic arsenicals target thioredoxin reductase followed by oxidative stress and mitochondrial dysfunction resulting in apoptosis” (Eur J Med Chem, 2018)
